The text below walks through data of PMC11956017, “Design of Benzyl-triazolopyrimidine-Based NADPH Oxidase Inhibitors Leads to the Discovery of a Potent Dual Covalent NOX2/MAOB Inhibitor” (Journal of Medicinal Chemistry, 2025).

One data set has as its target T1, human MAOB (Homo sapiens, UniProt P27338).
T1 construct: made in house; host or cells: Pichia pastoris
T1 sequence (P27338 1-520): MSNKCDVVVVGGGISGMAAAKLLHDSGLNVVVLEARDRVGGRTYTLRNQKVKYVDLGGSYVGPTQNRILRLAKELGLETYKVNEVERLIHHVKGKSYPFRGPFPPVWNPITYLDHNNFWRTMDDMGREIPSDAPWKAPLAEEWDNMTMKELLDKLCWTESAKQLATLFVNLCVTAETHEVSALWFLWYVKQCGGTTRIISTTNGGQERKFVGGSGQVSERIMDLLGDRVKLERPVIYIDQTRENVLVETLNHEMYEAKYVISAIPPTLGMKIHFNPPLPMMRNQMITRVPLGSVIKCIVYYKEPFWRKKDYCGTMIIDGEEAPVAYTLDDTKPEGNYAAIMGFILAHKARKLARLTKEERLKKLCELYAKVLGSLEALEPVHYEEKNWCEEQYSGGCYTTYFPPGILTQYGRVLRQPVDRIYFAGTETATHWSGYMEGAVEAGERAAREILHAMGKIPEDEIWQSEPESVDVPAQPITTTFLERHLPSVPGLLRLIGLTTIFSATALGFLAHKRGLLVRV
The data set can be described thus: Spectrophotometric monitoring of MAOB flavin covalent modification. It is filed as binding. On the procedure: IC50 values on human MAOA and human MAOB were determined using the Amplex Red/horseradish peroxidase coupled assay. […] Measurements were performed using a ClarioStar plate reader (excitation 572 nm and emission 583 nm) (BMG Labtech). IC50 values were obtained by fitting the percentage of inhibition versus log(inhibitor concentration) using GraphPad software 7.0. The covalent modification of the flavin upon the reaction with the propargylamine-containing inhibitors was monitored spectrophotometrically using a diode array UV/visible spectrophotometer (Agilent Technologies). […] The cofactor covalent modification was monitored over time following the shift of the enzyme-bound flavin (peaks at 370 and 456 nm) to 410 nm (ε410 = 23,500 M^–1 cm^–1) (Figure S10).

A further data set concerns the target T2, human myoglobin (Homo sapiens, UniProt P02144).
T2 construct: purchased Sigma Aldrich M6036; host or cells: human cardiac
T2 sequence (P02144 1-154): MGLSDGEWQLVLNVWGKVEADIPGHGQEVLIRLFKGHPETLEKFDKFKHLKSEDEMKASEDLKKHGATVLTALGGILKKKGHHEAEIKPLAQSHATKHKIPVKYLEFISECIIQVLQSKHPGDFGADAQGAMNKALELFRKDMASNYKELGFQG
The data set can be described thus: Native mass spectrometry of myoglobin reactivity. The data set is classed as binding. Conditions: myoglobin 1 µM, compound 5 µM and 20 µM, pH 7.5, 30 minutes. On the procedure:
Protein samples were buffer-exchanged into 200 mM ammonium acetate (pH 7.5) through dialysis prior to native MS analyses. These samples were directly introduced into the mass spectrometer using gold-coated capillary needles prepared in-house.[63] Data were collected on a Q Exactive UHMR hybrid quadrupole-Orbitrap mass spectrometer (Thermo Fisher) with positive polarity. The instrument parameters used for MS spectra collection were the following: capillary voltage, 1.2 kV; scan range from 1000 to 20,000 m/z; HCD collision energy, 0–100 V; source fragmentation, 0 V; in-source trapping, 0 V. The ion transfer optics was set as follows: injection flatapole, 5 V; interflatapole lens, 4 V; bent flatapole, 2 V; transfer multipole, 0 V. The resolution of the instrument was 17,500 at m/z = 200 (transient time of 64 ms), the nitrogen pressure in the HCD cell was maintained at approximately 4 × 10^–10 mbar, and the source temperature was kept at 100 °C. The noise level was set at 3 rather than the default value of 4.64. Calibration of the instruments was performed using 10 mg/mL solution of cesium iodide in water. Data were analyzed using Xcalibur 3.0 (Thermo Scientific), NaViA,[64] and UniDec software packages.[65]

The subject of the next data set is BV2 cells. Briefly: ROS detection with CellROX Deep Red in BV2 cells. It is filed as cell-based, murine. The settings on record: 10 μM, LPS/IFN-γ stimulation, 48 h. On the procedure:
BV2 murine microglial cells were cultured in DMEM supplemented with 10% heat-inactivated FBS, 100 IU/mL penicillin G, […] streptomycin, and […] amphotericin B and grown at 37 °C in 5% CO2 and a humidified atmosphere. […] After 30 min, LPS 100 ng/mL and IFN-γ 20 ng/mL were added to the medium for an additional 48 h. After treatment, BV2 cells were incubated with a CellROX Deep Red reagent (cat. no. C10422) at 5 μM and incubated for 30 min at 37 °C as indicated by the manufacturer protocol. ROS levels were measured by a spectrofluorometer, taking as 100% the median fluorescence intensity of cells treated with the vehicle.

Data set [1] concerns the target T3, NOX2 (Homo sapiens, UniProt P04839). The data set can be described thus: Human NOX2 isolated membranes, cytochrome c assay. It is filed as biochemical. More on the design: NOX2 was expressed as native protein in X-CGD PLB-985 cells transduced with the RD114 pseudotyped MFGS-NOX2 vector; expressed in transfected cells; host or cells: X-CGD PLB-985 cells transduced with MFGS-NOX2; isolated membranes; Cytosolic proteins made in E. coli. Conditions: membrane-embedded NOX2; n = 1; read-out: IC50 NOX2 measured with the cytochrome c assay. On the procedure:
The strong activity of NOX2 enabled the use of the peroxide-independent MCLA and cytochrome c assays that probe superoxide formation. IC50 determinations were performed as described, with the same aforementioned modifications for covalent inhibition. Briefly, 20 μg of NOX2-p22^phox membranes was added to a reaction mix with a 65 mM sodium phosphate buffer (pH 7.0), 0.5 μM FAD, 130 μM LiDS, 160 nM p67^phox, p47^phox, Rac1 Q61L, and 1 μM MCLA or 200 μM bovine cytochrome c. The estimated final protein concentration based on the heme’s absorbance was 60 nM. Compounds were incubated for 1 h at 25 °C, at varying concentrations. The reaction started by adding 240 μM NADPH, and measurements were taken by using a GloMax plate reader (Promega; MCLA) or a Cary 100 UV–vis spectrophotometer (Varian; cytochrome c).

The target in data set [2] is T3, NOX2. Briefly: NOX2 inhibition upon preactivation with cytosolic partners, washout, cytochrome c reduction. The data set is classed as biochemical. More on the design: NOX2 was expressed as native protein in X-CGD PLB-985 cells transduced with the RD114 pseudotyped MFGS-NOX2 vector; expressed in transfected cells; host or cells: X-CGD PLB-985 cells transduced with MFGS-NOX2; isolated membranes; Cytosolic proteins made in E. coli. The settings on record: 1 mM compound, 60 min, with or without p47phox/p67phox/Rac1, washout, fresh activators.
Procedure: More in detail, two different mixtures were prepared simultaneously: a “nonpreactivated NOX2” mixture in the absence of cytosolic partners and a “preactivated NOX2” mixture in the presence of cytosolic partners. NOX2-containing membranes (3.9 mg/mL) were added to a sodium phosphate buffer (65 mM, pH 7.0), 50 μM FAD, and 130 μM LiDS, in the presence or absence of 160 nM p67^phox, p47^phox, and Rac1 Q61L in a final volume of 20 μL. Both mixes were incubated with DMSO (vehicle) or 1 mM of the tested compound for 60 min at 25 °C. The mixtures were then centrifuged (20,000g for 10 min) at 4 °C to gently remove the excess of the inhibitor and, if present, of the activators. The supernatants were discarded to eliminate the excess of the nonbound compound, and the pellets were resuspended in the same volume of the fresh buffer. Subsequently, the resuspended pellets were loaded into a spectrophotometric cuvette at a final concentration of 0.39 mg/mL and incubated with fresh cytosolic activators (160 nM), LiDS (130 μM), and cytochrome c (200 μM) for 10 min at 25 °C. […] The reaction was then initiated with 240 μM NADPH and monitored at 550 nm with a Cary 100 UV–vis spectrophotometer (Varian).

Entries after “also recorded” stand apart in the source; their conditions may differ.

Take `C#CCN(C)Cc1ccc(Cn2nnc3c(Sc4nc5ccccc5o4)ncnc32)cc1` [Compound 9a, N-(4-((7-(Benzo[d]oxazol-2-ylthio)-3H-[1,2,3]triazolo[4,5-d]pyrimidin-3-yl)methyl)benzyl)-N-methylprop-2-yn-1-amine]: the “covalent flavin adduct with MAOB (absorbance shift to 410 nm)” value at human MAOB (5-fold molar excess over 20 μM protein) is “formation of a covalent N-methyl-N-propargylamine-flavin adduct”. Also, at human MAOB (after 30 min of incubation), the “MAOB cofactor modified at the final time point” value was 18.4 µM and the “calculated inhibited fraction of MAOB” value is recorded as 91.8%. In addition, the “adduct formation with myoglobin” value on human myoglobin is “no adduct formation was detected; also recorded: did not bind”. In addition, the “ROS levels in BV2 cells” value with BV2 cells is given as “decrease the ROS levels; also recorded: strongest ROS-dumping activity”. Further, on NOX2 [1], the IC50 worked out at 770 nM. For the same compound, the “retention of inhibitor by NOX2 after washout, resting vs activated state” value on NOX2 [2] was “retained only by the activated”.

For orientation: IC50 means the concentration needed to halve the response being measured.
